Measured values reported in ChEMBL document CHEMBL1201861, “Genomics of Drug Sensitity in Cancer screening data, Wellcome Trust Sanger Institute”.

Legend:
Assay in all cases: cells
Details in all cases: Homo sapiens
EFM-19 = format: functional, cell-based;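 note: growth inhibition of human EFM-19 cells, measured in a cell viability assay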
Description: SANGER: Inhibition of human EFM-19 cell growth in a cell viability assay.

D-392MG = format: functional, cell-based
DOK = format: functional, cell-based;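 note: cell viability assay read-out, values reflect inhibition of cell growth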
Description: SANGER: Inhibition of human DOK cell growth in a cell viability assay.

MKN-28 = format: functional, cell-based;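 note: cell viability assay read-out, IC50 reflects suppression of growth of human MKN-28 cells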
Description: SANGER: Inhibition of human MKN28 cell growth in a cell viability assay.

MDA-MB-361 = format: functional, cell-based
CAL-85-1 = format: functional, cell-based;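 note: growth inhibition of human CAL-85-1 cells, read out with a cell viability assay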
Description: SANGER: Inhibition of human CAL-85-1 cell growth in a cell viability assay.

COLO-792 = format: functional, cell-based
Description: SANGER: Inhibition of human COLO-792 cell growth in a cell viability assay.

NCI-H1693 = format: functional, cell-based;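 note: growth inhibition of the human cell line, read out with a cell viability assay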
Description: SANGER: Inhibition of human NCI-H1693 cell growth in a cell viability assay.

HT-29 = format: functional, cell-based;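 note: growth inhibition of human HT-29 cells, read out by a cell viability assay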
Description: SANGER: Inhibition of human HT-29 cell growth in a cell viability assay.

DBTRG-05MG = format: functional, cell-based;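 note: cell viability assay measuring growth inhibition of human DBTRG-05MG cells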
Description: SANGER: Inhibition of human DBTRG-05MG cell growth in a cell viability assay.

LCLC-103H cell line = format: functional, cell-based
Description: SANGER: Inhibition of human LCLC-103H cell growth in a cell viability assay.

LU-99A = format: functional, cell-based;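 note: growth inhibition of LU-99A cells, read out with a cell viability assay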
Description: SANGER: Inhibition of human LU-99A cell growth in a cell viability assay.

SK-MEL-30 = format: functional, cell-based;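 note: growth inhibition of SK-MEL-30 cells, determined with a cell viability assay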
Description: SANGER: Inhibition of human SK-MEL-30 cell growth in a cell viability assay.

HPAF-II = format: functional, cell-based;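 note: growth inhibition of HPAF-II cells, read out with a cell viability assay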
Description: SANGER: Inhibition of human HPAF-II cell growth in a cell viability assay.

COR-L23 = format: functional, cell-based;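 note: cell viability assay measuring how strongly compounds suppress growth of COR-L23 cells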
Description: SANGER: Inhibition of human COR-L23 cell growth in a cell viability assay.

Panc1005 = format: functional, cell-based;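 note: growth inhibition of human PANC-10-05 cells, measured by a cell viability assay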
Description: SANGER: Inhibition of human PANC-10-05 cell growth in a cell viability assay.

NCI-H1437 = format: functional, cell-based;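 note: growth inhibition of human NCI-H1437 cells, read out by a cell viability assay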
Description: SANGER: Inhibition of human NCI-H1437 cell growth in a cell viability assay.

PC-14 = format: functional, cell-based;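 note: cell viability assay measuring inhibition of PC-14 cell growth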
Description: SANGER: Inhibition of human PC-14 cell growth in a cell viability assay.

8305C = format: functional, cell-based
Description: SANGER: Inhibition of human 8305C cell growth in a cell viability assay.

HOP-92 = format: functional, cell-based;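 note: cell viability readout, with IC50 reflecting inhibition of HOP-92 cell growth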
Description: SANGER: Inhibition of human HOP-92 cell growth in a cell viability assay.

MEL-HO = format: functional, cell-based
Description: SANGER: Inhibition of human MEL-HO cell growth in a cell viability assay.

M14 = format: functional, cell-based;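 note: growth inhibition of M14 cells, read out with a cell viability assay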
Description: SANGER: Inhibition of human M14 cell growth in a cell viability assay.

KYSE-180 = format: functional, cell-based;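 note: growth inhibition of KYSE-180 cells, read out with a cell viability assay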
Description: SANGER: Inhibition of human KYSE-180 cell growth in a cell viability assay.

HEC-1 = format: functional, cell-based;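 note: growth inhibition of the cell line, read out with a cell viability assay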
Description: SANGER: Inhibition of human HEC-1 cell growth in a cell viability assay.

SAOS-2 = format: functional, cell-based;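 note: growth inhibition of human Saos-2 cells determined by a cell viability assay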
Description: SANGER: Inhibition of human Saos-2 cell growth in a cell viability assay.

C-33-A = format: functional, cell-based;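 note: cell viability assay measuring growth inhibition of C-33-A cells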
Description: SANGER: Inhibition of human C-33-A cell growth in a cell viability assay.

KU-19-19 = format: functional, cell-based
Description: SANGER: Inhibition of human KU-19-19 cell growth in a cell viability assay.

HN = format: functional, cell-based
Description: SANGER: Inhibition of human HN cell growth in a cell viability assay.

NCI-H1573 = format: functional, cell-based;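 note: growth inhibition of NCI-H1573 cells, read out with a cell viability assay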
Description: SANGER: Inhibition of human NCI-H1573 cell growth in a cell viability assay.

EFO-21 = format: functional, cell-based;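 note: growth inhibition of EFO-21 cells measured with a viability assay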
Description: SANGER: Inhibition of human EFO-21 cell growth in a cell viability assay.

KP-4 = format: functional, cell-based;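 note: human KP-4 cells, with growth inhibition read out through a cell viability assay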
Description: SANGER: Inhibition of human KP-4 cell growth in a cell viability assay.

Huh-7 = format: functional, cell-based;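 note: HuH-7 cell growth inhibition, read out with a cell viability assay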
Description: SANGER: Inhibition of human HuH-7 cell growth in a cell viability assay.

SK-MEL3 = format: functional, cell-based, SK-MEL-3;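 note: growth inhibition of human SK-MEL-3 cells, read out with a cell viability assay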
Description: SANGER: Inhibition of human SK-MEL-3 cell growth in a cell viability assay.

HCC1569 = format: functional, cell-based;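 note: growth inhibition of human HCC1569 cells, read out with a cell viability assay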
Description: SANGER: Inhibition of human HCC1569 cell growth in a cell viability assay.

SW780 = format: functional, cell-based;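 note: growth inhibition of the cells, read out with a cell viability assay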
Description: SANGER: Inhibition of human SW780 cell growth in a cell viability assay.

UACC-893 = format: functional, cell-based
Description: SANGER: Inhibition of human UACC-893 cell growth in a cell viability assay.

NCI-H1993 = format: functional, cell-based;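 note: growth inhibition of the cancer cell line, assessed with a cell viability assay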
Description: SANGER: Inhibition of human NCI-H1993 cell growth in a cell viability assay.

FaDu = format: functional, cell-based;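 note: cell viability readout of growth inhibition in FaDu cells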
Description: SANGER: Inhibition of human FADU cell growth in a cell viability assay.

RO82-W-1 = format: functional, cell-based;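 note: growth inhibition of human RO82-W-1 cells, measured with a cell viability assay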
Description: SANGER: Inhibition of human RO82-W-1 cell growth in a cell viability assay.

Daoy = format: functional, cell-based;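 note: daoy cell growth inhibition, read out as cell viability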
Description: SANGER: Inhibition of human Daoy cell growth in a cell viability assay.

KYSE-450 = format: functional, cell-based;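 note: cell growth inhibition measured by a viability assay in human KYSE-450 cells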
Description: SANGER: Inhibition of human KYSE-450 cell growth in a cell viability assay.

S-117 = format: functional, cell-based
Description: SANGER: Inhibition of human S-117 cell growth in a cell viability assay.

T98G = format: functional, cell-based;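 note: growth inhibition of T98G cells, read out by a cell viability assay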
Description: SANGER: Inhibition of human T98G cell growth in a cell viability assay.

786-0 = format: functional, cell-based
Description: SANGER: Inhibition of human 786-0 cell growth in a cell viability assay.

U2OS = format: functional, cell-based, U-2-OS;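 note: growth inhibition of human U-2-OS cells, determined with a cell viability assay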
Description: SANGER: Inhibition of human U-2-OS cell growth in a cell viability assay.

Ca-Ski = format: functional, cell-based;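 note: cell viability assay measuring inhibition of Ca-Ski cell growth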
Description: SANGER: Inhibition of human Ca-Ski cell growth in a cell viability assay.

C3A = format: functional, cell-based;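 note: growth inhibition of C3A human cells, quantified with a cell viability readout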
Description: SANGER: Inhibition of human C3A cell growth in a cell viability assay.

MIA PaCa-2 = format: functional, cell-based;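 note: growth inhibition of MIA PaCa-2 cells, read out with a cell viability assay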
Description: SANGER: Inhibition of human MIA-PaCa-2 cell growth in a cell viability assay.

SW756 = format: functional, cell-based;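 note: growth inhibition of human SW756 cells, read out with a cell viability assay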
Description: SANGER: Inhibition of human SW756 cell growth in a cell viability assay.

Hs-578T = format: functional, cell-based
Description: SANGER: Inhibition of human Hs-578-T cell growth in a cell viability assay.

SW626 = format: functional, cell-based;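 note: growth inhibition of SW626 cells, measured with a cell viability assay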
Description: SANGER: Inhibition of human SW626 cell growth in a cell viability assay.

For `O=C1NC(=O)c2c1c(-c1ccccc1Cl)cc1[nH]c3ccc(O)cc3c21`, the IC50 (EFM-19) was > 2000 nM, the IC50 (D-392MG) was > 2000 nM and the IC50 (DOK) was 1240 nM. The IC50 (MKN-28) was > 2000 nM, the IC50 (MDA-MB-361) was > 2000 nM and the IC50 (CAL-85-1) was > 2000 nM. The IC50 (COLO-792) was > 2000 nM, the IC50 (NCI-H1693) was > 2000 nM and the IC50 (HT-29) was > 2000 nM. The IC50 (DBTRG-05MG) was > 2000 nM, the IC50 (LCLC-103H cell line) was > 2000 nM and the IC50 (LU-99A) was > 2000 nM. For the same compound, the IC50 (SK-MEL-30) was > 2000 nM, the IC50 (HPAF-II) was > 2000 nM and the IC50 (COR-L23) was 752 nM. For the same compound, the IC50 (Panc1005) was > 2000 nM, the IC50 (NCI-H1437) was > 2000 nM and the IC50 (PC-14) was > 2000 nM. For the same compound, the IC50 (8305C) was > 2000 nM, the IC50 (HOP-92) was 1000 nM and the IC50 (MEL-HO) was > 2000 nM. The IC50 (M14) was 1690 nM, the IC50 (KYSE-180) was > 2000 nM and the IC50 (HEC-1) was > 2000 nM. The IC50 (SAOS-2) was > 2000 nM, the IC50 (C-33-A) was > 2000 nM and the IC50 (KU-19-19) was > 2000 nM. For the same compound, the IC50 (HN) was 1300 nM, the IC50 (NCI-H1573) was > 2000 nM and the IC50 (EFO-21) was > 2000 nM. The IC50 (KP-4) was > 2000 nM, the IC50 (Huh-7) was > 2000 nM and the IC50 (SK-MEL3) was 1310 nM. For the same compound, the IC50 (HCC1569) was > 2000 nM, the IC50 (SW780) was > 2000 nM and the IC50 (UACC-893) was > 2000 nM. The IC50 (NCI-H1993) was > 2000 nM, the IC50 (FaDu) was > 2000 nM and the IC50 (RO82-W-1) was > 2000 nM. The IC50 (Daoy) was > 2000 nM, the IC50 (KYSE-450) was > 2000 nM and the IC50 (S-117) was > 2000 nM. The IC50 (T98G) was > 2000 nM, the IC50 (786-0) was > 2000 nM and the IC50 (U2OS) was 1270 nM. The IC50 (Ca-Ski) was > 2000 nM, the IC50 (C3A) was > 2000 nM and the IC50 (MIA PaCa-2) was > 2000 nM.

`O=C(NCCCNc1nc(Nc2cccc(NC(=O)N3CCCC3)c2)ncc1I)c1cccs1` [BX-795] was tested, and the IC50 (EFM-19) was > 5000 nM, the IC50 (D-392MG) was > 5000 nM and the IC50 (DOK) was 4360 nM. The IC50 (MKN-28) was > 5000 nM, the IC50 (MDA-MB-361) was > 5000 nM and the IC50 (CAL-85-1) was > 5000 nM. The IC50 (COLO-792) was > 5000 nM, the IC50 (NCI-H1693) was > 5000 nM and the IC50 (SW756) was > 5000 nM. The IC50 (HT-29) was > 5000 nM, the IC50 (DBTRG-05MG) was > 5000 nM and the IC50 (LCLC-103H cell line) was 4070 nM. For the same compound, the IC50 (LU-99A) was > 5000 nM, the IC50 (SK-MEL-30) was > 5000 nM and the IC50 (HPAF-II) was > 5000 nM. The IC50 (COR-L23) was 4020 nM, the IC50 (Panc1005) was > 5000 nM and the IC50 (NCI-H1437) was 2770 nM. For the same compound, the IC50 (PC-14) was > 5000 nM, the IC50 (8305C) was 3610 nM and the IC50 (HOP-92) was 1270 nM. The IC50 (MEL-HO) was > 5000 nM, the IC50 (M14) was > 5000 nM and the IC50 (KYSE-180) was > 5000 nM. For the same compound, the IC50 (HEC-1) was 4090 nM, the IC50 (SAOS-2) was 4120 nM and the IC50 (C-33-A) was > 5000 nM. The IC50 (KU-19-19) was > 5000 nM, the IC50 (HN) was 2120 nM and the IC50 (NCI-H1573) was > 5000 nM. For the same compound, the IC50 (EFO-21) was > 5000 nM, the IC50 (KP-4) was > 5000 nM and the IC50 (Huh-7) was 4820 nM. For the same compound, the IC50 (SK-MEL3) was > 5000 nM, the IC50 (HCC1569) was > 5000 nM and the IC50 (SW780) was 3260 nM. For the same compound, the IC50 (UACC-893) was > 5000 nM, the IC50 (NCI-H1993) was > 5000 nM and the IC50 (FaDu) was > 5000 nM. For the same compound, the IC50 (RO82-W-1) was 4340 nM, the IC50 (Hs-578T) was 2420 nM and the IC50 (Daoy) was > 5000 nM. The IC50 (KYSE-450) was > 5000 nM, the IC50 (S-117) was > 5000 nM and the IC50 (T98G) was 2390 nM. The IC50 (786-0) was > 5000 nM, the IC50 (SW626) was > 5000 nM and the IC50 (U2OS) was 1590 nM. For the same compound, the IC50 (Ca-Ski) was > 5000 nM, the IC50 (C3A) was > 5000 nM and the IC50 (MIA PaCa-2) was > 5000 nM.

`CC1(C)CCC(c2ccc(Cl)cc2)=C(CN2CCN(c3ccc(C(=O)NS(=O)(=O)c4ccc(N[C@H](CCN5CCOCC5)CSc5ccccc5)c(S(=O)(=O)C(F)(F)F)c4)cc3)CC2)C1` [NAVITOCLAX] was tested, and the IC50 (EFM-19) was > 2000 nM, the IC50 (D-392MG) was > 2000 nM and the IC50 (DOK) was > 2000 nM. The IC50 (MKN-28) was > 2000 nM, the IC50 (MDA-MB-361) was > 2000 nM and the IC50 (CAL-85-1) was > 2000 nM. The IC50 (COLO-792) was 1200 nM, the IC50 (NCI-H1693) was > 2000 nM and the IC50 (SW756) was > 2000 nM. For the same compound, the IC50 (HT-29) was > 2000 nM, the IC50 (DBTRG-05MG) was > 2000 nM and the IC50 (LCLC-103H cell line) was > 2000 nM. For the same compound, the IC50 (LU-99A) was > 2000 nM, the IC50 (SK-MEL-30) was > 2000 nM and the IC50 (HPAF-II) was 926 nM. The IC50 (COR-L23) was 1800 nM, the IC50 (Panc1005) was > 2000 nM and the IC50 (NCI-H1437) was > 2000 nM. The IC50 (PC-14) was > 2000 nM, the IC50 (8305C) was > 2000 nM and the IC50 (HOP-92) was > 2000 nM. For the same compound, the IC50 (MEL-HO) was > 2000 nM, the IC50 (M14) was > 2000 nM and the IC50 (KYSE-180) was > 2000 nM. The IC50 (HEC-1) was > 2000 nM, the IC50 (SAOS-2) was > 2000 nM and the IC50 (C-33-A) was > 2000 nM. The IC50 (KU-19-19) was > 2000 nM, the IC50 (HN) was > 2000 nM and the IC50 (NCI-H1573) was > 2000 nM. The IC50 (EFO-21) was > 2000 nM, the IC50 (KP-4) was > 2000 nM and the IC50 (Huh-7) was 1670 nM. For the same compound, the IC50 (SK-MEL3) was > 2000 nM, the IC50 (HCC1569) was 251 nM and the IC50 (SW780) was > 2000 nM. The IC50 (UACC-893) was > 2000 nM, the IC50 (NCI-H1993) was > 2000 nM and the IC50 (FaDu) was > 2000 nM. The IC50 (RO82-W-1) was > 2000 nM, the IC50 (Hs-578T) was > 2000 nM and the IC50 (Daoy) was > 2000 nM. The IC50 (KYSE-450) was > 2000 nM, the IC50 (S-117) was > 2000 nM and the IC50 (T98G) was > 2000 nM. The IC50 (786-0) was > 2000 nM, the IC50 (SW626) was > 2000 nM and the IC50 (U2OS) was > 2000 nM. The IC50 (Ca-Ski) was > 2000 nM, the IC50 (C3A) was > 2000 nM and the IC50 (MIA PaCa-2) was > 2000 nM.

With `CS(=O)(=O)N1CCN(Cc2cc3nc(-c4cccc5[nH]ncc45)nc(N4CCOCC4)c3s2)CC1` [PICTILISIB] the IC50 (EFM-19) was 1620 nM, the IC50 (D-392MG) was > 4000 nM and the IC50 (DOK) was 302 nM. For the same compound, the IC50 (MKN-28) was > 4000 nM, the IC50 (MDA-MB-361) was 439 nM and the IC50 (CAL-85-1) was > 4000 nM. For the same compound, the IC50 (COLO-792) was > 4000 nM, the IC50 (NCI-H1693) was > 4000 nM and the IC50 (SW756) was > 4000 nM. For the same compound, the IC50 (HT-29) was > 4000 nM, the IC50 (DBTRG-05MG) was > 4000 nM and the IC50 (LCLC-103H cell line) was > 4000 nM. The IC50 (LU-99A) was > 4000 nM, the IC50 (SK-MEL-30) was > 4000 nM and the IC50 (HPAF-II) was 3100 nM. For the same compound, the IC50 (COR-L23) was 3370 nM, the IC50 (Panc1005) was > 4000 nM and the IC50 (NCI-H1437) was > 4000 nM. The IC50 (PC-14) was 3730 nM, the IC50 (8305C) was > 4000 nM and the IC50 (HOP-92) was 2750 nM. For the same compound, the IC50 (MEL-HO) was 2680 nM, the IC50 (M14) was 3310 nM and the IC50 (KYSE-180) was > 4000 nM. For the same compound, the IC50 (HEC-1) was > 4000 nM, the IC50 (SAOS-2) was 1330 nM and the IC50 (C-33-A) was > 4000 nM. The IC50 (KU-19-19) was 516 nM, the IC50 (HN) was 3070 nM and the IC50 (NCI-H1573) was > 4000 nM. The IC50 (EFO-21) was > 4000 nM, the IC50 (KP-4) was > 4000 nM and the IC50 (Huh-7) was 1210 nM. The IC50 (SK-MEL3) was > 4000 nM, the IC50 (HCC1569) was > 4000 nM and the IC50 (SW780) was > 4000 nM. The IC50 (UACC-893) was > 4000 nM, the IC50 (NCI-H1993) was > 4000 nM and the IC50 (FaDu) was > 4000 nM. The IC50 (RO82-W-1) was > 4000 nM, the IC50 (Hs-578T) was 1200 nM and the IC50 (Daoy) was > 4000 nM. For the same compound, the IC50 (KYSE-450) was > 4000 nM, the IC50 (S-117) was > 4000 nM and the IC50 (T98G) was 1990 nM. For the same compound, the IC50 (786-0) was 2590 nM, the IC50 (SW626) was > 4000 nM and the IC50 (U2OS) was 3140 nM. For the same compound, the IC50 (Ca-Ski) was > 4000 nM, the IC50 (C3A) was > 4000 nM and the IC50 (MIA PaCa-2) was > 4000 nM.
